Reference: patent US5919780A, “Tricyclic inhibitors of protein farnesyltransferase” (Warner Lambert Company, priority 1997, dated 1999)
Read-outs that look alike come from different tables or passages of the source.

Columns and labels:
[1] = target: T1, rat brain farnesyl protein transferase (Rattus norvegicus, UniProt Q02293+Q04631); assay: Farnesyl Protein Transferase Inhibition (PFT/FPT inhibitory activity); type: biochemical
T1 construct: 40-fold purified rat brain farnesyl protein transferase; from tissue; host or cells: rat brain
Experimental: The protein:farnesyltransferase (PFT) or farnesyl protein transferase (FPT) inhibitory activity of compounds of Formula I was assayed in HEPES buffer (pH 7.4) containing 5 mM potassium phosphate and 20 μM ZnCl2. The solution also contained 7 mM DTT, 1.2 mM MgCl2, 0.1 mM leupeptin, 0.1 mM pepstatin, and 0.2 mM phenylmethylsulfonyl fluoride. Assays were performed in 96 well plates (Wallec) and employed solutions composed of varying concentrations of a compound of Formula I in 100% DMSO. Upon addition of both substrates, radiolabeled farnesyl pyrophosphate ([1-^3 H], specific activity 15-30 Ci/mmol, final concentration 0.12 μM) and (biotinyl)-Ahe-Tyr-Lys-Cys-Val-Ile-Met peptide (final concentration 0.2 μM), the enzyme reaction was started by addition of 40-fold purified rat brain farnesyl protein transferase. After incubation at 37° for 30 minutes, the reaction was terminated by diluting the reaction 2.5-fold with a stop buffer containing 1.5M magnesium acetate, 0.2M H3 PO4, 0.5% BSA, and strepavidin beads (Amersham) at a concentration of 1.3 mg/mL. After allowing the plate to settle for 30 minutes at room temperature, radioactivity was quantitated on a microBeta counter (Model 1450, Wallec). Compounds of Formula I show IC50 values of 0.8 to 60 μM in this assay and are thus valuable inhibitors of protein:farnesyltransferase enzyme which may be used in the medical treatment of tissue proliferative diseases, including cancer and restenosis. The assay was also carried out without 5 mM potassium phosphate.

Ras protein = assay: Gel Shift Assay against ras protein; type: cell-based; settings: ras-transformed cells, 18-hour incubation; read-out: Gel Shift Minimum Effective Dose
Experimental: Twenty-four hours after planting 2×10^6 ras-transformed cells per treatment condition, the farnesylation inhibitor is added at varying concentrations. Following an 18-hour incubation period, cells are lysed in phosphate-buffered saline containing 1% Triton X-100, 0.5% sodium deoxycholate, and 0.1% SDS, pH 7.4 in the presence of several protease inhibitors (PMSF, antipain, leupeptin, pepstatin A, and aprotinin all at 1 μg/mL). Ras protein is immunoprecipitated from the supernatants by the addition of 3 μg v-H-ras Ab-2 (Y13-259 antibody from oncogene Science). After overnight immunoprecipitation, 30 μL of a 50% protein G-Sepharose slurry (Pharmacia) is added followed by 45-minute incubation. Pellets are resuspended in 2× tris-glycine loading buffer (Novex) containing 5% B-mercaptoethanol and then denatured by 5 minutes boiling prior to electrophoresis on 14% Tris-glycine SDS gels. Using Western transfer techniques, proteins are transferred to nitrocellulose membranes followed by blocking in blocking buffer. Upon overnight incubation with primary antibody (pan-ras Ab-2 from Oncogene Science), an antimouse HRP conjugate secondary antibody (Amersham) is employed for detection of the ras protein. Blots are developed using ECL techniques (Amersham).

[2] = Hepes with 5 mM PO4^-3, read-out: Farnesyl Protein Transferase Inhibition Hepes/5 mM PO4^-3 IC50
[3] = Hepes, without 5 mM phosphate, read-out: Farnesyl Protein Transferase Inhibition Hepes IC50

SMILES | IC50 [1, 2] [µM] | IC50 [1, 3] [µM] | minimal effective concentration (Ras protein) [µM]
Clc1ccc2c(c1)N=C(NCc1cccnc1)c1ccccc1O2 [Example 18, (8-Chloro-dibenzo[b,f][1,4]oxazepin-11-yl)-pyridin-3-ylmethyl-amine] | 16.5 | 8.7 | –
c1ccc(COc2ccc3c(c2)N=C(NCc2cccnc2)c2ccccc2N3)cc1 [Example 12, (8-Benzyloxy-5H-dibenzo[b,e][1,4]diazepin-11-yl)-pyridin-3-ylmethyl-amine] | 37 | > 50 | > 50
Brc1ccc2c(c1)N=C(NCc1cccnc1)c1ccccc1N2 [Example 10, (8-Bromo-5H-dibenzo[b,e][1,4]diazepin-11-yl)-pyridin-3-ylmethyl-amine] | 36 | 6 | –
Clc1ccc2c(c1)N=C(NCCc1cnc[nH]1)c1ccccc1N2 [Example 2, (8-Chloro-5H-dibenzo[b,e][1,4]diazepin-11-yl)-[2-(3H-imidazol-4-yl)-ethyl]-amine] | 3 | 2.4 | 25
Clc1ccc2c(c1)N=C(NCc1cccnc1)c1ccccc1N2 [Example 1, (8-Chloro-5H-dibenzo[b,e][1,4]diazepin-11-yl)pyridin-3-ylmethyl-amine] | 5 | 3.7 | 50
Clc1ccc2c(c1)N=C(NCCn1ccnc1)c1ccccc1N2 [Example 4, (8-Chloro-5H-dibenzo[b,e][1,4]diazepin-11-yl)-(2-imidazol-1-yl-ethyl)-amine] | 2.5 | 3 | 5
COc1ccc2c(c1)N=C(NCc1cccnc1)c1ccccc1N2 [Example 9, (8-Methoxy-5H-dibenzo[b,e][1,4]diazepin-11-yl)-pyridin-3-ylmethyl-amine] | 16 | 27 | 50
Clc1ccc2c(c1)N=C(NCCCn1ccnc1)c1ccccc1N2 [Example 5, (8-Chloro-5H-dibenzo[b,e][1,4]diazepin-11-yl)-(3-imidazol-1-yl-propyl)-amine] | 4.5 | 6.8 | 2.5
Clc1ccc2c(c1)N=C(NCc1cccnc1)c1ccccc1S2 [Example 16, (8-Chloro-dibenzo[b,f][1,4]thiazepin-11-yl)pyridin-3-ylmethyl-amine] | 22 | 9.8 | –
Clc1ccc2c(c1)Nc1ccccc1C(NCc1cccnc1)=N2 [Example 6, (7-Chloro-5H-dibenzo[b,e][1,4]diazepin-11-yl)pyridin-3-ylmethyl-amine] | 5.6 | 5.5 | 50
Clc1cc2c(cc1Cl)Nc1ccccc1C(NCc1cccnc1)=N2 [Example 11, (7,8-Dichloro-5H-dibenzo[b,e][1,4]diazepin-11-yl)-pyridin-3-ylmethyl-amine] | 1.6 | 0.8 | 50
Clc1ccc2c(c1)N=C(NCCc1cccnc1)c1ccccc1N2 [Example 3, (8-Chloro-5H-dibenzo[b,e][1,4]diazepin-11-yl)-(2-pyridin-3-yl-ethyl)-amine] | 57 | 36 | > 50
Cc1ccc2c(c1)N=C(NCc1cccnc1)c1ccccc1N2 [Example 8, (8-Methyl-5H-dibenzo[b,e][1,4]diazepin-11-yl)-pyridin-3-ylmethyl-amine] | 31 | 24 | –
c1cncc(CNC2=Nc3ccccc3Nc3ccccc32)c1 [Example 7, (5H-Dibenzo[b,e][1,4]diazepin-11-yl)-pyridin-3-ylmethyl-amine] | 12 | 23 | 50
O=S1(=O)c2ccc(Cl)cc2N=C(NCc2cccnc2)c2ccccc21 [Example 17, (8-Chloro-5,5-dioxo-5H-5λ^6-dibenzo[b,f][1,4]thiazepin-11-yl)-pyridin-3-ylmethyl-amine] | 6.1 | 5 | –
c1cncc(CNC2=Nc3ccccc3Nc3ncccc32)c1 [Example 14, (11H-Benzo[b]pyrido[2,3-e][1,4]diazepin-5-yl)-pyridin-3-ylmethyl-amine] | 17 | 14 | 50
COc1cc2c(cc1OC)C(NCc1cccnc1)=Nc1cc(Cl)c(Cl)cc1N2 [Example 13, (7,8-Dichloro-2,3-dimethoxy-5H-dibenzo[b,e][1,4]diazepin-11-yl)-pyridin-3-ylmethyl-amine] | 50 | 30 | –
CN1c2ccc(Cl)cc2N=C(NCc2cccnc2)c2ccccc21 [Example 15, (8-Chloro-5-methyl-5H-dibenzo[b,e][1,4]diazepin-11-yl)-pyridin-3-ylmethyl-amine] | 17 | 12.2 | > 25
